System: murine dermal fibroblasts
Assay: RNA-Seq of newborn murine dermal fibroblasts
Format: cell-based, mouse
Details: 10^−7 M, 24 h
Experimental: All animal studies followed guidelines outlined by the NIH Guide for the Care and Use of Laboratory Animals and protocols were approved by the Institutional Animal Care and Use Committee at the NIEHS or the UAB. […] Skin samples from newborn C57BL/6 mice were collected at the NIEHS. Dermal fibroblasts were isolated from the skin of newborn mice, 1–2 day old. Briefly, we followed the protocols described previously. The skin was washed in PBS, cut into smaller pieces and incubated in 2.4 U/ml of dispase II (Roche) overnight at 4 °C. The dermis was separated from the epidermis and incubated in 0.1% collagenase (Roche) at 4 °C overnight. […] Single cell suspension was prepared by pipetting and draining through a cell strainer. After centrifugation, cell pellets were suspended in DMEM medium containing 10% charcoal-stripped fetal bovine serum (cFBS), mouse fibroblasts growth factor (FGF) and 1% antibiotic, and inoculated into tissue culture dishes (Midwest Scientific, TPP). Cells, in early passages, from different mice were pooled together to provide representative samples for experiments. Fibroblasts were cultured in Petri dishes (10 cm in diameter) in DMEM and 10% cFBS and triplicate semi-confluent cultures were treated as described.
Triplicate cultures of murine fibroblasts were used for RNA isolation (RNAeasy Micro kit, Qiagen), the RNA samples were combined for each condition and at least 200 ng of RNA for each sample was used to create libraries for RNA sequencing by BGI Americas Corporation Service (Cambridge, MA)[67]. Quality of RNA and its concentration were determined using Agilent 2100.
The raw sequence FASTQ files were aligned to Gencode’s GRCm38 p4 Release M11 genome using STAR version 2.5.4b (parameters used: –outReadsUnmapped Fastx; –outSAMtype BAM SortedByCoordinate; –outSAMattributes All; –outFilterIntronMotifs RemoveNoncanonicalUnannotated)[69]. The abundance of transcripts was calculated from the alignments using Cufflinks version 2.2.1 (parameters used: –G; –L; –library-type fr-firststrand). Samples were merged using default parameters with Cuffmerge[70],[71]. The differential expression was calculated using Cuffdiff’s default parameters. The raw data have been deposited at the NCBI GEO (GSE145818).

SMILES: C=C1CCC(O)CC1=CC=C1CCCC2(C)C1CCC2C(C)(O)CC(O)CC(C)C (centres unmarked) [20,23(OH)2D3]
- Adh7 expression level: 1.158
- Adh7 log2(fold_change) vs control: 2.167
- Aqp11 expression level: 0.9828
- Aqp11 log2(fold_change) vs control: 2.131
- Arid3b expression level: 0.2183
- Arid3b log2(fold_change) vs control: -3.968
- Bicd1 expression level: 0.8132
- Bicd1 log2(fold_change) vs control: -1.4
- Btc expression level: 0.8829
- Btc log2(fold_change) vs control: 1.8593
- Car9 expression level: 2.126
- Car9 log2(fold_change) vs control: -2.151
- Cbs expression level: 0.2841
- Cbs log2(fold_change) vs control: -2.782
- Ccl4 expression level: 0.1702
- Ccl4 log2(fold_change) vs control: -2.322
- Cd68 expression level: 3.478
- Cd68 log2(fold_change) vs control: 1.602
- Cd200 expression level: 0.493
- Cd200 log2(fold_change) vs control: -1.526
- Cherp expression level: 31.4407
- Cherp log2(fold_change) vs control: -2.561
- Clec2g expression level: 0
- Clec2g log2(fold_change) vs control: -inf
- Cnnm4 expression level: 3.148
- Cnnm4 log2(fold_change) vs control: -4.001
- Cox15 expression level: 16.947
- Cox15 log2(fold_change) vs control: 1.531
- Cpa2 expression level: 0.3137
- Cpa2 log2(fold_change) vs control: -2.329
- Ctrl expression level: 0.115
- Ctrl log2(fold_change) vs control: -3.153
- Dcun1d1 expression level: 4.486
- Dcun1d1 log2(fold_change) vs control: -1.564
- Defb42 expression level: 0.09112
- Defb42 log2(fold_change) vs control: -3.331
- Dtx1 expression level: 0.6816
- Dtx1 log2(fold_change) vs control: -1.292
- Ehf expression level: 0.1594
- Ehf log2(fold_change) vs control: -2.391
- Ercc2 expression level: 13.0262
- Ercc2 log2(fold_change) vs control: -3.709
- Erh expression level: 2.145
- Erh log2(fold_change) vs control: -1.557
- Fmnl1 expression level: 0.08875
- Fmnl1 log2(fold_change) vs control: -3.4
- Gys2 expression level: 0
- Gys2 log2(fold_change) vs control: -inf
- Hist1h2ab expression level: 1.7305
- Hist1h2ab log2(fold_change) vs control: 2.585
- Hist1h2bg expression level: 0.5684
- Hist1h2bg log2(fold_change) vs control: -2
- Hist1h2bh expression level: 0
- Hist1h2bh log2(fold_change) vs control: -inf
- Hist1h4c expression level: 0
- Hist1h4c log2(fold_change) vs control: -inf
- Isl1 expression level: 0.3239
- Isl1 log2(fold_change) vs control: -1.316
- Krt19 expression level: 10.8799
- Krt19 log2(fold_change) vs control: 1.0982
- Larp1b expression level: 3.399
- Larp1b log2(fold_change) vs control: -2.948
- Lhx6 expression level: 2.278
- Lhx6 log2(fold_change) vs control: -2.362
- Lsm5 expression level: 1.07
- Lsm5 log2(fold_change) vs control: -1.322
- M1ap expression level: 1.3491
- M1ap log2(fold_change) vs control: 1.119
- Med9os expression level: 0.7965
- Med9os log2(fold_change) vs control: -1.386
- Nckipsd expression level: 11.1997
- Nckipsd log2(fold_change) vs control: 1.42
- Nr3c2 expression level: 0.3025
- Nr3c2 log2(fold_change) vs control: -1.869
- Nr6a1 expression level: 0.323
- Nr6a1 log2(fold_change) vs control: -2.52
- Ntrk3 expression level: 0.007819
- Ntrk3 log2(fold_change) vs control: -7.899
- Parvg expression level: 0.4359
- Parvg log2(fold_change) vs control: -1.7705
- Pde4dip expression level: 25.3974
- Pde4dip log2(fold_change) vs control: -7.279
- Psd4 expression level: 0.1525
- Psd4 log2(fold_change) vs control: -3.368
- Ptpa expression level: 177.146
- Ptpa log2(fold_change) vs control: 1.413
- Ptpn6 expression level: 0.3394
- Ptpn6 log2(fold_change) vs control: -5.148
- Rnu3a expression level: 0
- Rnu3a log2(fold_change) vs control: -inf
- Rpph1 expression level: 0.6606
- Rpph1 log2(fold_change) vs control: -1
- Rsad1 expression level: 1.045
- Rsad1 log2(fold_change) vs control: -1.592
- Saa1 expression level: 0
- Saa1 log2(fold_change) vs control: -inf
- Samd12 expression level: 1.71
- Samd12 log2(fold_change) vs control: -1.081
- Scn8a expression level: 0.1177
- Scn8a log2(fold_change) vs control: -2.776
- Sgca expression level: 0.3824
- Sgca log2(fold_change) vs control: -1.697
- Slc15a4 expression level: 15.7859
- Slc15a4 log2(fold_change) vs control: -1.861
- Slc16a5 expression level: 0.2329
- Slc16a5 log2(fold_change) vs control: -1.992
- Snhg9 expression level: 7.505
- Snhg9 log2(fold_change) vs control: -1.322
- St7 expression level: 25.5959
- St7 log2(fold_change) vs control: -1.436
- Stmn1 expression level: 6.591
- Stmn1 log2(fold_change) vs control: 2.0805
- Susd1 expression level: 1.936
- Susd1 log2(fold_change) vs control: 1.474
- Syt8 expression level: 0.7109
- Syt8 log2(fold_change) vs control: -2.1726
- Syt12 expression level: 0.9907
- Syt12 log2(fold_change) vs control: -2.055
- Tldc2 expression level: 0.1921
- Tldc2 log2(fold_change) vs control: -2.216
- Tnnc2 expression level: 0.313
- Tnnc2 log2(fold_change) vs control: -1.361
- Unc5c expression level: 0.1434
- Unc5c log2(fold_change) vs control: -2.931
- Wdr17 expression level: 1.106
- Wdr17 log2(fold_change) vs control: -1.028
- Zbtb18 expression level: 4.966
- Zbtb18 log2(fold_change) vs control: -3.168
- Zfp618 expression level: 1.583
- Zfp618 log2(fold_change) vs control: -1.597
- number of genes downregulated, FC ≥ 2: 540
- number of genes upregulated, FC ≥ 2: 437
- number of genes solely downregulated (FC ≥ 2): 116 (11%)
- number of genes solely upregulated (FC ≥ 2): 193 (12.8%)

Reference: PMC8044163, “Vitamin D and lumisterol derivatives can act on liver X receptors (LXRs)” (Scientific Reports, 2021)
